Source: patent US20090017105A1, “PROLIPOSOMAL AND LIPOSOMAL COMPOSITIONS OF POORLY WATER SOLUBLE DRUGS” (priority 2007, published 2009)
Where a name gives a salt, the structure may show the parent alone. Read-outs that look alike come from different tables or passages of the source.

Columns and labels:
[1] = cited from earlier work; for entrapment in the liposomes: Mayhew et al., U.S. Pat. No. 5,939,567 and 6,118,011
[2] = Ogawa et al., U.S. Pat. No. 5,094,854, cited from earlier work
DU145 = assay: In vitro cytotoxicity, 72 hour MIT assay; assay type: cell-based; conditions: Homo sapiens, DU-145; Prostrate, DU145, 72 hour
Source text: (§1) The cytotoxicity of the Liposomal composition of Docetaxel (hereinafter referred to as “LD”) in vitro in a panel of human cancer cell lines, expected to be sensitive to Docetaxel and the effects were compared with the conventional, approved, marketed composition of Docetaxel, viz. Taxotere® (hereinafter referred to as “CD”). A solution of bulk Docetaxel in DMSO was taken as a positive control for the studies.

SKOV3 = assay: In vitro cytotoxicity, 72 hour MIT assay; assay type: cell-based; conditions: Homo sapiens, SK-OV-3; Ovary, SKOV3, 72 hour
Source text: as §1

MDA MB 453 = assay: In vitro cytotoxicity, 72 hour MIT assay; assay type: cell-based; conditions: Homo sapiens; Breast, MDA MB 453, 72 hour
Source text: as §1

PAI = assay: In vitro cytotoxicity, 72 hour MIT assay; assay type: cell-based; conditions: Homo sapiens, Ovary
Source text: as §1

[3] = cited from earlier work
[4] = Durr et al., U.S. Pat. No. 5,670,536; cited from earlier work
[5] = liposome system of Hager et al.

For `CCCCCC(=O)OC(C(=O)OC1CC2(O)C(OC(=O)c3ccccc3)C3C4(OC(C)=O)COC4CC(O)C3(C)C(=O)C(OC(C)=O)C(=C1C)C2(C)C)C(NC(=O)c1ccccc1)c1ccccc1` (stereo not shown) [2′-caproyl Paclitaxel], the “entrapment in the liposomes” value [1] is given as “about 70%”.
In the case of `CCCCCC(=O)OC1CC2OCC2(OC(C)=O)C2C(OC(=O)c3ccccc3)C3(O)CC(OC(=O)C(O)C(NC(=O)c4ccccc4)c4ccccc4)C(C)=C(C(OC(C)=O)C(=O)C12C)C3(C)C` (stereo not shown) [7-caproyl Paclitaxel], the “entrapment in the liposomes” value [1] is listed as “about 90%”.
For `N.N.[Cl][Pt][Cl]` [Cisplatin], the “rate of release of the drug” value ([2]; 39° C.) is listed as “hardly anything” and the “rate of release of the drug” value ([2]; 42° C.) is listed as 30 to 95%.
With `CC(=O)O[C@@]12CO[C@@H]1C[C@H](O)[C@@]1(C)C(=O)[C@H](O)C3=C(C)[C@@H](OC(=O)[C@H](O)[C@@H](NC(=O)OC(C)(C)C)c4ccccc4)C[C@@](O)([C@@H](OC(=O)c4ccccc4)[C@H]21)C3(C)C` [Docetaxel Solution in DMSO, Docetaxel] the IC50 (DU145) was 5.13 ± 1.28 nM, the IC50 (SKOV3) was 9.87 ± 2.74 nM and the IC50 (MDA MB 453) was 15.1 ± 2.3 nM. For the same molecule, the IC50 (PAI) was less than 0.01 nM, the “period for which liposomal compositions remain clear” value ([3]; Durr et al., U.S. Pat. No. 5,670,536, 20° C.) was “more than eight weeks” and the particle diameter [4] was 47 to 71 nm.
For `COc1cccc2c1C(=O)c1c(O)c3c(c(O)c1C2=O)C[C@@](O)(C(=O)CO)C[C@@H]3O[C@H]1C[C@H](N)[C@H](O)[C@H](C)O1` [Doxorubicin hydrochloride], the encapsulation ([1]; liposome system of Hager et al., U.S. Pat. No. 5,556,637 and 5,741,517) is given as 78%.
For `COc1cccc2c1C(=O)c1c(O)c3c(c(O)c1C2=O)C[C@@](O)(C(=O)CO)C[C@@H]3O[C@H]1C[C@H](N)[C@H](O)[C@H](C)O1` [Doxorubicin], the drop in potency ([3]; lyophilized liposomal composition of Huang et al., WO 92/02208, in two weeks) is given as 10-15%, the “drug entrapment in the liposomes” value ([1]; liposomes of Barenholz et al., U.S. Pat. No. 4,797,285 and 4,898,735) is given as 85-90% and the “entrapment of the drug” value ([1]; thermosensitive liposomes of Needham et al., U.S. Pat. No. 6,200,598 and 6,726,925 B1) is given as “not more than 80%”.
For Quinoline yellow, the liposome-bound active principle [1, 5] is listed as 1.38 mg/mL and the non-liposomal-bound active principle [1, 5] is listed as “about 3.2 mg/ml”.
